Test results reported in patent USRE47689E1, “Compounds for treating spinal muscular atrophy” (PTC Therapeutics, Inc., priority 2011, dated 2019).

Experiments:
[1] = test system: full length and Δ7 SMN2 mRNAs; assay: Endogenous SMN2 mRNA RT-qPCR splicing assay in cultured cells; assay type: cell-based, human; conditions: GM03813 Type 1 SMA patient fibroblasts, increasing concentrations, 24 hrs
Procedure: The reverse transcription-quantitative PCR-based (RT-qPCR) assay is used to quantify the levels of the full length and Δ7 SMN2 mRNAs in primary cells and cell lines containing the SMN2 gene treated with a test compound.
Protocol. GM03813 SMA patient cells (5,000 cells/well) are seeded in 200 μL, of cell culture medium (DMEM plus 10% FBS) in 96-well flat-bottom plates and the plate is immediately swirled to ensure proper dispersal of cells, forming an even monolayer of cells. Cells are allowed to attach for at least 4-6 hrs. Test compounds are serially diluted 3.16-fold in 100% DMSO to generate a 7-point concentration curve. A solution of test compound (1 μL, 200× in DMSO) is added to each test well and 1 μL, DMSO is added to each control well. The plate is incubated for 24 hrs in a cell culture incubator (37° C., 5% CO2, 100% relative humidity). The cells are then lysed in Cells-To-Ct lysis buffer and the lysate is stored at −80° C.
SMN2-specific spliced products and GAPDH mRNA are identified using the following primers and probes in Table 5. Primer SMN FL Forward B (SEQ ID NO. 7) hybridizes to a nucleotide sequence in exon 7 (nucleotide 32 to nucleotide 54) and exon 8 (nucleotide 1 to nucleotide 4), primer SMN Δ7 Forward B (SEQ ID NO. 8) hybridizes to a nucleotide sequence in exon 6 (nucleotide 87 to nucleotide 111) and exon 8 (nucleotide 1 to nucleotide 3), primer SMN Reverse B (SEQ ID NO. 9) hybridizes to a nucleotide sequence in exon 8 (nucleotide 39 to nucleotide 62), probe SMN Probe B (SEQ ID NO. 10) hybridizes to a nucleotide sequence in exon 8 (nucleotide 7 to nucleotide 36). These primers and probe hybridize to nucleotide sequences common to human SMN1 and SMN2 mRNAs. Since the SMA patient cells used in Example 3 contain only the SMN2 gene, RT-qPCR can quantify only SMN2 full-length and Δ7 mRNA.
The SMN forward and reverse primers are used at final concentrations of 0.4 μM. The SMN probe is used at a final concentration of 0.15 μM. GAPDH primers are used at final concentrations of 0.1 μM and the probe at 0.075 μM. TaqMan gene expression assays were conducted at 20× concentrations with the GAPDH primers and Vic labeled probe provided as a 20× mixture. The One-Step RT-PCR kit was used as the Real-Time PCR Mix. […]
The increase of SMN2 FL and decrease in SMN2 Δ7 mRNAs relative to those in cells treated with vehicle control are determined from real-time PCR data using a modified ΔΔCt method (as described in Livak and Schmittgen, Methods, 2001, 25:402-8). The amplification efficiency E is calculated from the slope of the amplification curve for SMN2 FL, SMN2 Δ7, and GAPDH individually. The abundances of SMN2 FL, SMN2 Δ7, and GAPDH are then calculated as (1+E)^−Ct, where Ct is the threshold value for each amplicon. […]

Smn protein = Smn protein assay in human motor neurons; assay type: cell-based; conditions: human motor neurons derived from SMA iPS cells; increasing concentrations; 72 hours; confocal fluorescence microscopy
Procedure: Smn immunofluorescent confocal microscopy is used to quantify the level of Smn protein in human motor neurons treated with test compounds.
Protocol. Human motor neurons derived from SMA iPS cells (Ebert et al., Nature, 2009, […]; and, Rubin et al., BMC Biology, 2011, 9:42) are treated with test compound at various concentrations for 72 hours. The level of Smn protein in the cell nucleus is quantified using Smn immunostaining and confocal fluorescence microscopy essentially as described in Makhortova et al., Nature Chemical Biology, 2011, 7:544. The level of Smn protein in compound-treated samples is normalized to that in vehicle-treated samples and plotted as a function of the compound concentration.

Row | Compound | SMN2 FL mRNA relative to vehicle [1] | SMN2 Δ7 mRNA relative to vehicle [1] | Smn protein in the nucleus (Smn protein)
1 | CC(C)NCCc1ccc2cc(-c3nc4c(Cl)cccc4s3)c(=O)oc2c1 [Cpd 35, 3-(4-chloro-1,3-benzothiazol-2-yl)-7-[2-(propan-2-ylamino)ethyl]-2H-chromen-2-one] | progressively more SMN2 FL mRNA | less SMN2 Δ7 mRNA | progressively more Smn protein in the nucleus
2 | CCN1CCN(c2ccc3cc(-c4cn5cc(C)nc(C)c5n4)c(=O)oc3c2)C[C@@H]1C [Cpd 626, 3-(6,8-dimethylimidazo[1,2-a]pyrazin-2-yl)-7-[(3S)-4-ethyl-3-methylpiperazin-1-yl]-2H-chromen-2-one] | progressively more SMN2 FL mRNA | less SMN2 Δ7 mRNA | progressively more Smn protein in the nucleus
